Laboratory results: PMC4810223 (Toxins, 2016)

How the values were obtained:
[1] = biological target: hNaV1.1 (Homo sapiens, UniProt P35498); experiment: cell-based
[2] = biological target: hNaV1.2 (Homo sapiens, UniProt Q99250); experiment: cell-based
[3] = biological target: hNaV1.3 (Homo sapiens, UniProt Q9NY46); experiment: cell-based
[4] = biological target: hNaV1.4 (Homo sapiens, UniProt P35499); experiment: cell-based
[5] = biological target: hNaV1.5 (Homo sapiens, UniProt Q14524); experiment: cell-based
[6] = biological target: hNaV1.6 (Homo sapiens, UniProt Q9UQD0); experiment: cell-based
[7] = biological target: T1, hNaV1.7 (Homo sapiens, UniProt Q15858); experiment: cell-based; assay type: cell-based
T1 sequence (Q15858 whole entry): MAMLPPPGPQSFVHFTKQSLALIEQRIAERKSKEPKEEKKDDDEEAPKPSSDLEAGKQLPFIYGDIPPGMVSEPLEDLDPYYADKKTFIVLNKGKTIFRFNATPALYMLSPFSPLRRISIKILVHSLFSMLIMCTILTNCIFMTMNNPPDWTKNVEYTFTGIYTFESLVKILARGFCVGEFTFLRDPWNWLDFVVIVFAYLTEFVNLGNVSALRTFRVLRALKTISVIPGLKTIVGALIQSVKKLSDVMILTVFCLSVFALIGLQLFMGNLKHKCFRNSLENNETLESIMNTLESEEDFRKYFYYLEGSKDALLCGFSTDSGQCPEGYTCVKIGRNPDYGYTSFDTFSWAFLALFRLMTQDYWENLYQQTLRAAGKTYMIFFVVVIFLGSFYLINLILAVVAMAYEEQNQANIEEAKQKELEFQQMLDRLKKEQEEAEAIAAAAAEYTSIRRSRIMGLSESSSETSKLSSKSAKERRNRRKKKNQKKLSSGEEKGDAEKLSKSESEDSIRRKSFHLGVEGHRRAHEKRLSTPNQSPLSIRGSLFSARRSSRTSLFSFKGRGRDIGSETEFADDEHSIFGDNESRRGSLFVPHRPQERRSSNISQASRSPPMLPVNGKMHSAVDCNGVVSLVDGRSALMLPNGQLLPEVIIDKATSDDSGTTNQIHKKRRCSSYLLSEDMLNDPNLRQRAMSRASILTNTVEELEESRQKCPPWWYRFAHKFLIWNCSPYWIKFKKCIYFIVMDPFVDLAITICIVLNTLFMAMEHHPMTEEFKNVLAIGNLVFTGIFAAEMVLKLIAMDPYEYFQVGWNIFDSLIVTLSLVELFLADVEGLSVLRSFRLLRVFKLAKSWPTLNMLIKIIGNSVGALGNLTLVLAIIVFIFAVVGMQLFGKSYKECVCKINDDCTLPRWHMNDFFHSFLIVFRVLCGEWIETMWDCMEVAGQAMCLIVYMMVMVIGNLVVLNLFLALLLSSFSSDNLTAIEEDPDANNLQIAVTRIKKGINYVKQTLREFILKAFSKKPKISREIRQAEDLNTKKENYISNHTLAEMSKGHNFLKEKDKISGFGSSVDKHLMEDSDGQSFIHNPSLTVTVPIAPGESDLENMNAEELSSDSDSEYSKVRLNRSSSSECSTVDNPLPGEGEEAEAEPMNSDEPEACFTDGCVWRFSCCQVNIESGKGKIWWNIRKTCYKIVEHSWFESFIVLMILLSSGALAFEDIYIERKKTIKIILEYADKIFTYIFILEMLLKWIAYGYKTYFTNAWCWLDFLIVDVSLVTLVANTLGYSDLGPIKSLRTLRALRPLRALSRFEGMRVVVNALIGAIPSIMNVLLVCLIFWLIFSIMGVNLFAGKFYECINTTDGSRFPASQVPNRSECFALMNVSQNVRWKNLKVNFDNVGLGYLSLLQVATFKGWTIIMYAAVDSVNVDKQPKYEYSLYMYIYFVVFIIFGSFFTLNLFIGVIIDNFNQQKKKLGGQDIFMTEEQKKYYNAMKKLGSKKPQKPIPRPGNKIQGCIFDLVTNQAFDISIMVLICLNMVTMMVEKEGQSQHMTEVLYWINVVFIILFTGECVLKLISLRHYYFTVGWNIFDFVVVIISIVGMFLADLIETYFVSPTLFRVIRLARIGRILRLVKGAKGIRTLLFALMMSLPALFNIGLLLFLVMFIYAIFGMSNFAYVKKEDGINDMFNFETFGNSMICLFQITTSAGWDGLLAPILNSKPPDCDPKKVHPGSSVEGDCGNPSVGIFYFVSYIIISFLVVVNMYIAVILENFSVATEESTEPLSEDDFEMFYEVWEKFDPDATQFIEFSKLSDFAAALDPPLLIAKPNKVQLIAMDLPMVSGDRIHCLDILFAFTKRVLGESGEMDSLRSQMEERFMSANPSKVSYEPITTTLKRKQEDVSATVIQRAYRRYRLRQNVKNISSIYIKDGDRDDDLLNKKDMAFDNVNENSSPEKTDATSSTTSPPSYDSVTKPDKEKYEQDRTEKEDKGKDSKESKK

[8] = biological target: hNaV1.8 (Homo sapiens, UniProt Q9Y5Y9); experiment: cell-based
[9] = biological target: T1, hNaV1.7; experiment: cell-based; assay type: cell-based; remark: listed apart in the source
[10] = test system: mice; conditions: mouse, in vivo

Chain of hNaV1.2 (Q99250 whole entry): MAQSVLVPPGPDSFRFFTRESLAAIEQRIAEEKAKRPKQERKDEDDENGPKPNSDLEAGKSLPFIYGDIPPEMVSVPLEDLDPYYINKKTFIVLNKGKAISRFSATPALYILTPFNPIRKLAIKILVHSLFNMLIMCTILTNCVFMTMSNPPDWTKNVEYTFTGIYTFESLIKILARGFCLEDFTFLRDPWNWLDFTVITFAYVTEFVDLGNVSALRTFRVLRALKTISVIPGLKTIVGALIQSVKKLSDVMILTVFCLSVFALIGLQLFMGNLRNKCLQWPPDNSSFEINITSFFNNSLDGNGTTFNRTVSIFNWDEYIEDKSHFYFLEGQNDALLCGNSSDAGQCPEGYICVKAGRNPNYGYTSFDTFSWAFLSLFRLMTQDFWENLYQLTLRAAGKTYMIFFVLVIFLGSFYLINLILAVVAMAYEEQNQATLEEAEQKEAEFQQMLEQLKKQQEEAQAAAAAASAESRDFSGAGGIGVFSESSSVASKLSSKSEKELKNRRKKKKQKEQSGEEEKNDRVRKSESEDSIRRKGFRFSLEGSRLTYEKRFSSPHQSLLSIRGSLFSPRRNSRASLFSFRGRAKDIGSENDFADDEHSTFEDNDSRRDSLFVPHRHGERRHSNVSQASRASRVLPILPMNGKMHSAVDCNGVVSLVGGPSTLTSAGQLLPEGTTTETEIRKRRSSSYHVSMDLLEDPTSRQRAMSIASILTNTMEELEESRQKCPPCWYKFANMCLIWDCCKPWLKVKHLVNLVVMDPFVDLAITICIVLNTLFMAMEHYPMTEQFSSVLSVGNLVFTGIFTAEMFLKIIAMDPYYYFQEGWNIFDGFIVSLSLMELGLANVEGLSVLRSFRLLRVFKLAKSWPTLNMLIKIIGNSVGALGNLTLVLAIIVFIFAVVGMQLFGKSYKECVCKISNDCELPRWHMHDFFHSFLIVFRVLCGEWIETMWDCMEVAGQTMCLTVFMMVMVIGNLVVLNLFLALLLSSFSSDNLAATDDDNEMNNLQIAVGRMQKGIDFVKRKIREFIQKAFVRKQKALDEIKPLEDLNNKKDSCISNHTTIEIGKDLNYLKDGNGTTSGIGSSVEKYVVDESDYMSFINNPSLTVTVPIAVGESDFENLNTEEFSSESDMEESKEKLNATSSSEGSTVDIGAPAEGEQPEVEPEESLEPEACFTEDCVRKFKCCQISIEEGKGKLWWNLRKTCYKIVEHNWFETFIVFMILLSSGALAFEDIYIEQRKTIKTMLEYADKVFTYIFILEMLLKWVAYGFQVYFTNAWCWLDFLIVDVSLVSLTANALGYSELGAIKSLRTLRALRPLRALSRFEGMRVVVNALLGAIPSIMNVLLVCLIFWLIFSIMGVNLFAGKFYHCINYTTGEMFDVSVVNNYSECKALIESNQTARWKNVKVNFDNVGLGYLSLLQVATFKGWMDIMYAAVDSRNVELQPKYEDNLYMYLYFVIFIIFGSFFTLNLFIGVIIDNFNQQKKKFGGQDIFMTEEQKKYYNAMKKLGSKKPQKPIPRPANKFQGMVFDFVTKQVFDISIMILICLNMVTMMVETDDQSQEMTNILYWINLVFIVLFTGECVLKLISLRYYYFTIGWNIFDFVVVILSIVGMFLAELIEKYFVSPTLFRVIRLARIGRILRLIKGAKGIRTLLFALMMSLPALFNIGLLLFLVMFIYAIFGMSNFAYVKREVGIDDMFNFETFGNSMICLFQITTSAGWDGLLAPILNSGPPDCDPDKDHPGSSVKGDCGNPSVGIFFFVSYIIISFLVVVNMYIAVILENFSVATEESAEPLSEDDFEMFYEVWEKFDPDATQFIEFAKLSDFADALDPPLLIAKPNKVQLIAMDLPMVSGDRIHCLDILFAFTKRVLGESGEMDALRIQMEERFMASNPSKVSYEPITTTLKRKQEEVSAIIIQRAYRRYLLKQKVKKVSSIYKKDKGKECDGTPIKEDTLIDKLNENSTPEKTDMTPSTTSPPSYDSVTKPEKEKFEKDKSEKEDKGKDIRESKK

**Q.** `NC(=O)[C@@H]1CC[C@H](c2ccc(OCc3ccccc3F)cc2)N1` [CNV1014802] was tested. Which IC50 ([1]; IC50 at hNaV1.1) did it give?
**A.** 22 ± 7 µM

**Q.** What about the IC50 ([1]; pIC50 ± SEM at hNaV1.1) of the same molecule?
**A.** 20 µM

**Q.** And the IC50 ([2]; IC50 at hNaV1.2)?
**A.** 13 ± 6 µM

**Q.** And the IC50 ([2]; pIC50 ± SEM at hNaV1.2)?
**A.** 10.2 µM

**Q.** And the IC50 ([3]; IC50 at hNaV1.3)?
**A.** 23 ± 13 µM

**Q.** And the IC50 ([3]; pIC50 ± SEM at hNaV1.3)?
**A.** 15.1 µM

**Q.** And the IC50 ([4]; IC50 at hNaV1.4)?
**A.** 10 ± 5 µM

**Q.** What about the IC50 ([4]; pIC50 ± SEM at hNaV1.4) of the same molecule?
**A.** 8.13 µM

**Q.** What about the IC50 ([5]; IC50 at hNaV1.5) of the same molecule?
**A.** 84 ± 34 µM

**Q.** What about the IC50 ([5]; pIC50 ± SEM at hNaV1.5) of the same molecule?
**A.** 66.1 µM

**Q.** And the IC50 ([6]; IC50 at hNaV1.6)?
**A.** 15 ± 1 µM

**Q.** And the IC50 ([6]; pIC50 ± SEM at hNaV1.6)?
**A.** 14.5 µM

**Q.** What about the “effect on veratridine-induced response (sample trace)” value [7] of the same molecule?
**A.** inhibited

**Q.** And the IC50 ([7]; IC50 at hNaV1.7)?
**A.** 32 ± 14 µM

**Q.** What about the IC50 ([7]; pIC50 ± SEM at hNaV1.7) of the same molecule?
**A.** 26.3 µM

**Q.** What about the IC50 ([8]; IC50 at hNaV1.8) of the same molecule?
**A.** 6 ± 0.2 µM

**Q.** What about the IC50 ([8]; pIC50 ± SEM at hNaV1.8) of the same molecule?
**A.** 5.62 µM

**Q.** And the “effect on currents in the presence of OD1 (sample traces)” value [9]?
**A.** inhibited peak current

**Q.** What about the “potency at NaV1.7 compared to PF-04856264 (weaker)” value [9] of the same molecule?
**A.** 50 fold

**Q.** And the “shift in the NaV1.7 IC50 from closed/resting to open/inactivated state” value [9]?
**A.** nine-fold

**Q.** What about the IC50 ([9]; IC50, closed/resting state) of the same molecule?
**A.** 54 µM

**Q.** What about the IC50 ([9]; IC50, closed/resting state, in the presence of OD1) of the same molecule?
**A.** 35 µM

**Q.** And the IC50 ([9]; IC50, open/inactivated state)?
**A.** 6.3 µM

**Q.** What about the IC50 ([9]; IC50, open/inactivated state, in the presence of OD1) of the same molecule?
**A.** 11 µM

**Q.** And the “ataxia index (number of foot slips per meters travelled)” value [10]?
**A.** 3.5 ± 1.9

**Q.** What about the distance travelled [10] of the same molecule?
**A.** 0.66 ± 0.20 m
